Measured values as given in US20250122174A1 (Shenzhen Yuanli Shenwan Innovative Medicine Co., Ltd., priority 2022, published 2025).

target: HPK1 (Homo sapiens (Human), UniProt Q92918); test: HPK1 Inhibition Assay (ADP-Glo kinase assay); assay type: biochemical; details: ATP 10 μM
Protocol: A stock solution of 10 mM test compound was prepared in DMSO. The compound was prepared by 5-fold and 10-point serial dilutions with HPK1 kinase assay buffer. The HPK1 kinase assay buffer contained 40 mM Tris, pH 7.5; 20 mM MgCl2, 0.1 mg/ml BSA, and 50 μM DTT. 7.5 ng/μl of Active HPK1 (Promega, V4098) and 0.1 μg/ml MBP substrate protein were added to the reaction system. The final concentration of ATP in the HPK1 kinase reaction system was 10 μM. Serial diluted compounds were transferred to the reaction system and incubated at room temperature for 1 hr. 5 μL of ADP-Glo™ Reagent (Promega, V9101) was added and incubated for 40 min to stop the kinase reaction and deplete the unconsumed ATP. […] The luminescence was measured with a plate-reading luminometer.

Chain of HPK1 (Q92918 1-346 limits assumed): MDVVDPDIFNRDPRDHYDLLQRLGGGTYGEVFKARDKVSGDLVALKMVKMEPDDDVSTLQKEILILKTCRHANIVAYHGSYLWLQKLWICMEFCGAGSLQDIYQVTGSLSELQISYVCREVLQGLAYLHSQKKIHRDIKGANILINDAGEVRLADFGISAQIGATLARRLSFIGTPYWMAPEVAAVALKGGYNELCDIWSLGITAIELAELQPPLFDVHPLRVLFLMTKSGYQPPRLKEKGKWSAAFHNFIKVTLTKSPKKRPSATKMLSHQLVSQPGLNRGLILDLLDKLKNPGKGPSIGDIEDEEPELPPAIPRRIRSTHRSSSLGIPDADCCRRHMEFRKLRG

Row | IC50 | Structure (SMILES)
1 | 100 to 1000 nM | Cc1nc2c(N3CC[C@H](N)C3)c(NC(=O)c3ccnn(-c4c(F)cccc4F)c3=O)ccc2n1C1CC1 [Example 48, N-{4-[(35)-3-aminopyrrolidin-1-yl]-1-cyclopropyl-2-methyl-1,3-benzodiazol-5-yl}-2-(2,6-difluorophenyl)-3-oxopyridazine-4-carboxamide]
2 | < 100 nM | N[C@H]1CN(c2c(NC(=O)c3ccc(=O)n(-c4c(F)cccc4F)n3)ccc3c2cnn3C2CCOCC2)CC12CC2 [Example 251, (R)-N-(4-(7-amino-5-azaspiro[2.4]heptan-5-yl)-1-(tetrahydro-2H-pyran-4-yl)-1H-indazol-5-yl)-1-(2,6-difluorophenyl)-6-oxo-1,6-dihydropyridazine-3-carboxamide]
3 | < 100 nM | CC(C)n1ncc2c(N3C[C@H](N)C4(CC4)C3)c(NC(=O)c3ccc(=O)n(-c4c(F)cccc4F)n3)ccc21 [Example 182, (R)-N-(4-(7-amino-5-azaspiro[2.4]heptan-5-yl)-1-isopropyl-1H-indazol-5-yl)-1-(2,6-difluorophenyl)-6-oxo-1,6-dihydropyridazine-3-carboxamide]
4 | < 100 nM | N[C@@H]1CCN(c2c(NC(=O)c3ccc(=O)n(-c4c(F)cccc4F)n3)ccc3c2cnn3CC(F)(F)F)C1 [Example 290, (R)-N-(4-(3-aminopyrrolidin-1-yl)-1-(2,2,2-trifluoroethyl)-1H-indazol-5-yl)-1-(2,6-difluorophenyl)-6-oxo-1,6-dihydropyridazine-3-carboxamide]
5 | < 100 nM | CC1(C)CN(c2c(NC(=O)c3ccc(=O)n(-c4c(F)cccc4F)n3)ccc3nn(C4CC4)cc23)C[C@@H]1N [Example 334, (R)-N-(4-(4-amino-3,3-dimethylpyrrolidin-1-yl)-2-cyclopropyl-2H-indazol-5-yl)-1-(2,6-difluorophenyl)-6-oxo-1,6-dihydropyridazine-3-carboxamide]
6 | < 100 nM | CC(C)n1cc2c(N3C[C@H](C)[C@@H](N)C3)c(NC(=O)c3ccc(=O)n(-c4c(F)cccc4F)n3)ccc2n1 [Example 231, N-(4-((3R,4S)-3-amino-4-methylpyrrolidin-1-yl)-2-isopropyl-2H-indazol-5-yl)-1-(2,6-difluorophenyl)-6-oxo-1,6-dihydropyridazine-3-carboxamide]
7 | < 100 nM | [2H]C([2H])([2H])n1ncc2c(N3C[C@H](N)C4(CC4)C3)c(NC(=O)c3ccc(=O)n(-c4c(F)cccc4F)n3)ccc21 [Example 172, (R)-N-(4-(7-amino-5-azaspiro[2.4]heptan-5-yl)-1-(methyl-d3)-1H-indazol-5-yl)-1-(2,6-difluorophenyl)-6-oxo-1,6-dihydropyridazine-3-carboxamide]
8 | < 100 nM | Cc1nc2c(N(C)[C@@H]3CCCNC3)c(NC(=O)c3ccc(=O)n(-c4c(F)cccc4F)n3)ccc2n1C [Example 70, (R)-1-(2,6-difluorophenyl)-N-(1,2-dimethyl-4-(methyl(piperidin-3-yl)amino)-1H-benzo[d]imidazol-5-yl)-6-oxo-1,6-dihydropyridazine-3-carboxamide]
9 | < 100 nM | N[C@@H]1CCN(c2c(NC(=O)c3ccc(=O)n(-c4c(F)cccc4F)n3)ccc3nn(CC(F)(F)F)cc23)C1 [Example 338, (R)-N-(4-(3-aminopyrrolidin-1-yl)-2-(2,2,2-trifluoroethyl)-2H-indazol-5-yl)-1-(2,6-difluorophenyl)-6-oxo-1,6-dihydropyridazine-3-carboxamide]
10 | < 100 nM | CC(C)n1ncc2c(N3C[C@@H]4NCCO[C@H]4C3)c(NC(=O)c3ccc(=O)n(-c4c(F)cccc4F)n3)ccc21 [Example 194, 1-(2,6-difluorophenyl)-N-(4-((4aS,7aS)-hexahydropyrrolo[3,4-b][1,4]oxazin-6(2H)-yl)-1-isopropyl-1H-indazol-5-yl)-6-oxo-1,6-dihydropyridazine-3-carboxamide]
11 | < 100 nM | Cn1cc2c(N3CCC(N)CC3)c(NC(=O)c3ccc(=O)n(-c4c(F)cccc4F)n3)ccc2n1 [Example 177, N-(4-(4-aminopiperidin-1-yl)-2-methyl-2H-indazol-5-yl)-1-(2,6-difluorophenyl)-6-oxo-1,6-dihydropyridazine-3-carboxamide]
12 | < 100 nM | CC(C)c1nc2c(N3CC[C@@H](CN)C3)c(NC(=O)c3ccc(=O)n(-c4c(F)cccc4F)n3)ccc2n1C [Example 116, (S)-N-(4-(3-(aminomethyl)pyrrolidin-1-yl)-2-isopropyl-1-methyl-1H-benzo[d]imidazol-5-yl)-1-(2,6-difluorophenyl)-6-oxo-1,6-dihydropyridazine-3-carboxamide]
13 | < 100 nM | Cn1c(C(C)(C)C)nc2c(N3CC[C@@H](N)C3)c(NC(=O)c3ccc(=O)n(-c4c(F)cccc4F)n3)ccc21 [Example 99, (R)-N-(4-(3-aminopyrrolidin-1-yl)-2-(tert-butyl)-1-methyl-1H-benzo[d]imidazol-5-yl)-1-(2,6-difluorophenyl)-6-oxo-1,6-dihydropyridazine-3-carboxamide]
14 | < 100 nM | COCCn1ncc2c(N3C[C@@H](C)[C@@H](N)C3)c(NC(=O)c3ccc(=O)n(-c4c(F)cccc4F)n3)ccc21 [Example 283, N-(4-((3R,4R)-3-amino-4-methylpyrrolidin-1-yl)-1-(2-methoxyethyl)-1H-indazol-5-yl)-1-(2,6-difluorophenyl)-6-oxo-1,6-dihydropyridazine-3-carboxamide]
15 | 100 to 1000 nM | COc1ccc(Cl)c(F)c1-c1nccc(C(=O)Nc2cc(F)ccc2N2C[C@H]3C[C@@H]2CN3)c1F [Example 4, N-(2-((1R,4R)-2,5-diazabicyclo[2.2.1]heptan-2-yl)-5-fluorophenyl)-2-(3-chloro-2-fluoro-6-methoxyphenyl)-3-fluoroisonicotinamide]
16 | < 100 nM | Cn1ncc2c(N3CC[C@@H](N)C3)c(NC(=O)c3ccc(=O)n(-c4c(F)cccc4F)n3)ccc21 [Example 167, (R)-N-(4-(3-aminopyrrolidin-1-yl)-1-methyl-1H-indazol-5-yl)-1-(2,6-difluorophenyl)-6-oxo-1,6-dihydropyridazine-3-carboxamide]
17 | < 100 nM | COCCn1cc2c(N3CC[C@@H](N)C3)c(NC(=O)c3ccc(=O)n(-c4c(F)cccc4F)n3)ccc2n1 [Example 328, (R)-N-(4-(3-aminopyrrolidin-1-yl)-2-(2-methoxyethyl)-2H-indazol-5-yl)-1-(2,6-difluorophenyl)-6-oxo-1,6-dihydropyridazine-3-carboxamide]
18 | < 100 nM | C[C@@H]1CN(c2c(NC(=O)c3ccc(=O)n(-c4c(F)cccc4F)n3)ccc3nn(C4CC(F)(F)C4)cc23)C[C@@H]1N [Example 307, N-(4-((3R,4R)-3-amino-4-methylpyrrolidin-1-yl)-2-(3,3-difluorocyclobutyl)-2H-indazol-5-yl)-1-(2,6-difluorophenyl)-6-oxo-1,6-dihydropyridazine-3-carboxamide]
19 | < 100 nM | COc1cccc(F)c1-n1cccc(C(=O)Nc2ccc3c(nc(C)n3C)c2N2CCC[C@H]2CN)c1=O [Example 54, (S)-N-(4-(2-(aminomethyl)pyrrolidin-1-yl)-1,2-dimethyl-1H-benzo[d]imidazol-5-yl)-1-(2-fluoro-6-methoxyphenyl)-2-oxo-1,2-dihydropyridine-3-carboxamide]
20 | < 100 nM | Cc1cc(NC(=O)c2ccc(=O)n(-c3c(F)cccc3F)n2)c(N2CC[C@@H](N)C2)c2cnn(C(C)C)c12 [Example 185, (R)-N-(4-(3-aminopyrrolidin-1-yl)-1-isopropyl-7-methyl-1H-indazol-5-yl)-1-(2,6-difluorophenyl)-6-oxo-1,6-dihydropyridazine-3-carboxamide]
21 | < 100 nM | C[C@]1(O)CCN(c2cc(-c3cnccc3C#N)ccc2NC(=O)c2ccc(=O)n(-c3c(F)cccc3F)n2)C1 (single isomer, unassigned) [Example 353]
22 | < 100 nM | N[C@H]1CN(c2c(NC(=O)c3ccc(=O)n(-c4c(F)cccc4F)n3)ccc3nn(C4CC4)cc23)CC12CC2 [Example 336, (R)-N-(4-(7-amino-5-azaspiro[2.4]heptan-5-yl)-2-cyclopropyl-2H-indazol-5-yl)-1-(2,6-difluorophenyl)-6-oxo-1,6-dihydropyridazine-3-carboxamide]
23 | < 100 nM | C[C@@H]1CN(c2c(NC(=O)c3ccc(=O)n(-c4c(F)cccc4F)n3)ccc3c2nc(C2(C(F)(F)F)CC2)n3C)C[C@@H]1N [Example 148, N-(4-((3R,4R)-3-amino-4-methylpyrrolidin-1-yl)-1-methyl-2-(1-(trifluoromethyl)cyclopropyl)-1H-benzo[d]imidazol-5-yl)-1-(2,6-difluorophenyl)-6-oxo-1,6-dihydropyridazine-3-carboxamide]
24 | < 100 nM | CC(C)n1ncc2c(N3C[C@@H](C)[C@@H](NCCO)C3)c(NC(=O)c3ccc(=O)n(-c4c(F)cccc4F)n3)ccc21 [Example 214, 1-(2,6-difluorophenyl)-N-(4-((3R,4R)-3-((2-hydroxyethyl)amino)-4-methylpyrrolidin-1-yl)-1-isopropyl-1H-indazol-5-yl)-6-oxo-1,6-dihydropyridazine-3-carboxamide]
25 | < 100 nM | Cn1c(C(C)(C)F)nc2c(N3CC[C@@H](N)C3)c(NC(=O)c3ccc(=O)n(-c4c(F)cccc4F)n3)cc(F)c21 [Example 157, (R)-N-(4-(3-aminopyrrolidin-1-yl)-7-fluoro-2-(2-fluoropropan-2-yl)-1-methyl-1H-benzo[d]imidazol-5-yl)-1-(2,6-difluorophenyl)-6-oxo-1,6-dihydropyridazine-3-carboxamide]
26 | < 100 nM | Cn1ncc2c(N3CCC(N)CC3)c(NC(=O)c3ccc(=O)n(-c4c(F)cccc4F)n3)cc(F)c21 [Example 168, N-(4-(4-aminopiperidin-1-yl)-7-fluoro-1-methyl-1H-indazol-5-yl)-1-(2,6-difluorophenyl)-6-oxo-1,6-dihydropyridazine-3-carboxamide]
